Measurements from patent US20200032313A1 (SANYO CHEMICAL INDUSTRIES, LTD., priority 2017, published 2020).
Read-outs that look alike come from different tables or passages of the source.

Legend:
[1] = system: luciferase-expressing Pichia pastoris; assay type: cell-based; settings: 8 hours
Protocol: Transformation was performed using Pichia pastoris distributed by Biotechnology Center, National Institute of Technology and Evaluation, whereby luciferase-expressing microorganisms were produced. A vector pPICZ a (Thermo Fisher Scientific) was digested with XhoI and XbaI, and a synthetic (synthesized by Thermo Fisher Scientific on commission) luciferase gene having an XhoI cut site at one end and an XbaI cut site at the other end was inserted into the vector. The microorganisms were transformed by the luciferase gene-inserted pPICZ a according to the method described in an instruction manual of pPICZ a. The luciferase-expressing microorganisms were inoculated using a platinum loop into BMGY broth, and were shake-cultured at 200 rpm at 30° C. for 15 hours. Then, the thus-obtained broth was resuspended in 125-ml BMGY broth (yeast extract 1 wt % (Difco), bacto peptone 2 wt % (Difco), yeast nitrogen base w/o amino acid 1.34 wt % (Difco), glucose 2 wt %, and 100 mM potassium hydrogen phosphate; pH: 6.0) to a final OD of 0.1 OD/ml. Further, the resuspended broth was continued to be shake-cultured at 1100 rpm at 30° C. for about 17 hours until OD was 20 to 30. When OD was 20 to 30, the broth was centrifuged (1500 g, 10 min), and resuspended in 125-ml BMMY broth, followed by culturing at 1100 rpm at 30° C. for 2 hours.
Two hours later, the surfactant described in Table 2 was added to the broth in the amount (wt %) described in Table 2, and the broth was cultured at 1100 rpm at 30° C. for 8 hours. Subsequently, the broth was sampled for measuring the optical density (optical density at the end of culturing) and for measuring the secretion efficiency. Then, these samples were subjected to centrifugation using a centrifuge to separate bacteria and the supernatant from the broth. Then, the supernatant and the bacteria were collected.
(§1) The broth obtained in each of Examples 1 to 22 and Comparative Examples 1 and 2 was 10 to 1000-fold diluted in a 0.2 M Tris-HCl buffer (pH 7.4), and 20 μl of the dilution was mixed with 60 μl of a luciferin solution described below to obtain a sample. The emission intensity of the sample was measured using a luminometer under the following conditions, and the measured emission intensity was substituted into the following formula. The resulting value was regarded as the luciferase activity of the secreted and produced useful substance.
(§2) Luminometer: “Glomax Navigator” available from Promega Corporation Luciferin solution: product of New England Biolabs Japan Inc. Measurement temperature: 25° C. Detector: emission detector Detection wavelength: 350 to 700 nm
(§3) (Luciferase activity of secreted and produced useful substance)=(Emission intensity)×dilution factor/(optical density at the end of culturing)
(§4) The bacteria obtained in each of Examples 1 to 22 and Comparative Examples 1 and 2 were mixed with a 0.2 M Tris-HCl buffer (pH 7.4) in an amount of 200 μl that is equal to the amount of the removed supernatant, followed by centrifugation, whereby the bacteria were washed. The washed bacteria were resuspended in a 0.2 M Tris-HCl buffer (pH 7.4) in an amount of 200 μl that is equal to the amount of the washed supernatant, and 10 to 1000-fold diluted in a 0.2 M Tris-HCl buffer (pH 7.4). The resulting dilution was used as a sample for measuring the luciferase activity on the bacterial surface.
Then, 20 μl of the sample for measuring the luciferase activity on the bacterial surface was mixed with 60 μl of the luciferin solution to obtain a sample. The emission intensity of the sample was measured under the same conditions as for “Measurement of luciferase activity of secreted and produced useful substance”, and the measured emission intensity was substituted into the following formula. The resulting value was regarded as the luciferase activity of the useful substance remaining on the bacterial surface. […]

[2] = system: luciferase-expressing Saccharomyces cerevisiae; assay type: cell-based; settings: S. cerevisiae, 8 hours
Protocol: (§5) Transformation was performed using Saccharomyces cerevisiae distributed by Biotechnology Center, National Institute of Technology and Evaluation, whereby luciferase-expressing microorganisms were produced. A vector pYES2 (Thermo Fisher Scientific) was digested with HindIII and XbaI, and a synthetic (synthesized by Thermo Fisher Scientific on commission) a factor-luciferase gene having a HindIII cut site at one end and an XbaI cut site at the other end was inserted into the vector. The microorganisms were transformed by the a factor-luciferase gene-inserted pYES2 according to the method described in an instruction manual of pYES2. The luciferase-expressing microorganisms were inoculated using a platinum loop into YPD broth (yeast extract 1 wt % (Difco), bacto peptone 2 wt % (Difco), and glucose 2 wt %) and were shake-cultured at 200 rpm at 30° C. for 15 hours. Then, the thus-obtained broth was resuspended in 125-ml YPD broth (containing 100 mM potassium hydrogen phosphate buffer; pH: 6) to a final optical density (hereinafter sometimes abbreviated as “OD”) of 0.1 OD/ml.
(§6) Further, the resuspended broth was continued to be shake-cultured at 1100 rpm at 30° C. for about 17 hours until OD was 20 to 30. When OD was 20 to 30, the broth was centrifuged (1500 g, 10 min), and resuspended in 125-ml galactose-inducing broth (the YPD broth containing 100 mM potassium phosphate buffer and also containing 2% galactose instead of glucose; pH: 6), followed by culturing at 1100 rpm at 30° C. for 2 hours.
(§7) Subsequently, the surfactant described in Table 1 was added to the broth in the amount (wt %) described in Table 1, and the broth was cultured at 1100 rpm at 30° C. for 8 hours. Subsequently, the broth was sampled for measuring the optical density (optical density at the end of culturing) and for measuring the secretion efficiency. Then, these samples were subjected to centrifugation using a centrifuge to separate bacteria and the supernatant from the broth. Then, the supernatant and the bacteria were collected.
as §1, §2, §3, §4
Then, 20 μl of the sample for measuring the luciferase activity on the bacterial surface was mixed with 60 μl of the luciferin solution to obtain a sample. The emission intensity of the sample was measured under the same conditions as for “Measurement of luciferase activity of secreted and produced useful substance”, and the measured emission intensity was substituted into the following formula. […]

[3] = system: luciferase-expressing Saccharomyces cerevisiae; assay type: cell-based; settings: S. cerevisiae, 8 hours culturing after addition
Protocol: as §5
The optical density of the broth was measured under the same conditions as for “Method of measuring the optical density of broth” described later.
as §6, §7
The optical density of the broth containing the microorganisms collected by sampling was measured in a quartz cell (light path of 1 cm) using a spectrophotometer (UV-1700, Shimadzu Corporation).
The broth was centrifuged at 1500 rpm at 4° C. for 5 minutes, and the supernatant was discarded. The precipitate was resuspended in a saline solution in an amount equal to the amount of the sample solution, and was diluted in the saline solution to obtain an appropriate absorbance (0.1 to 0.8). Then, the absorbance at 600 nm was measured. The optical density of the broth was calculated using the following mathematical formula (1).
Broth optical density(OD)=(Absorbance of diluted broth at 600 nm)×dilution factor of broth (Mathematical formula 1)

[4] = pKa of the ionizable group of the surfactant in water; settings: two values where two ionizable groups
Protocol: The pKa of the ionizable group in water is a value determined at 25° C.

[5] = surfactant 0.03 wt % of broth, Examples 13, 16-22
[6] = surfactant 0.03 wt % of broth, Examples 2, 5-11
[7] = surfactant 0.003 wt % of broth, Example 1
[8] = surfactant 0.3 wt % of broth, Example 3
[9] = surfactant 3 wt % of broth, Example 4

**Q.** Which “Secretion efficiency (%)” value [1, 5] does the source give for `CCCCCCCCCCCCCCCCOP(=O)([O-])OCC[N+](C)(C)C` [Surfactant (A3-4), miltefosine, reference compound] here?
**A.** 66%

**Q.** And the “Secretion efficiency (%)” value [2, 6]?
**A.** 59%

**Q.** And the “Optical density (OD) of broth at the end of culturing” value (shortened to “Optical density (OD) of broth”) [3, 6]?
**A.** 21.1 OD

**Q.** Which “Secretion efficiency (%)” value [1, 5] does the source give for “sodium polyoxyethylene (average 2.5 mol adduct) lauryl ether sulfate [Surfactant (A1-1)]” here?
**A.** 66%

**Q.** And the “Secretion efficiency (%)” value [2, 6]?
**A.** 66%

**Q.** What about the “Optical density (OD) of broth” value [3, 6] of the same compound?
**A.** 21.9 OD

**Q.** And the “pKa of the ionizable group in water at 25° C.” value [4]?
**A.** 2.0

**Q.** Which “Secretion efficiency (%)” value [1, 5] does the source give for `CCCCCCCCCCCC[N+](C)(C)CC(=O)[O-]` [Surfactant (A3-5), betaine lauryldimethylaminoacetate] here?
**A.** 90%

**Q.** And the “Secretion efficiency (%)” value [2, 6]?
**A.** 56%

**Q.** What about the “Optical density (OD) of broth” value [3, 6] of the same compound?
**A.** 20.4 OD

**Q.** For `CCCCCCCCCCCCNCCC(=O)O`, which “Secretion efficiency (%)” value ([1]; surfactant 0.003 wt % of broth, Example 12) is on record?
**A.** 64%

**Q.** What about the “Secretion efficiency (%)” value [1, 5] of the same compound?
**A.** 80%

**Q.** What about the “Secretion efficiency (%)” value ([1]; surfactant 0.3 wt % of broth, Example 14) of the same compound?
**A.** 84%

**Q.** And the “Secretion efficiency (%)” value ([1]; surfactant 3 wt % of broth, Example 15)?
**A.** 67%

**Q.** And the “Secretion efficiency (%)” value [2, 7]?
**A.** 56%

**Q.** And the “Secretion efficiency (%)” value [2, 6]?
**A.** 61%

**Q.** What about the “Secretion efficiency (%)” value [2, 8] of the same compound?
**A.** 65%

**Q.** What about the “Secretion efficiency (%)” value [2, 9] of the same compound?
**A.** 75%

**Q.** What about the “Optical density (OD) of broth” value [3, 7] of the same compound?
**A.** 23.5 OD

**Q.** And the “Optical density (OD) of broth” value [3, 6]?
**A.** 21.2 OD

**Q.** What about the “Optical density (OD) of broth” value [3, 8] of the same compound?
**A.** 18.2 OD

**Q.** And the “Optical density (OD) of broth” value [3, 9]?
**A.** 10.9 OD

**Q.** With “sodium polyoxyethylene (average 3 mol adduct) lauryl ether acetate [Surfactant (A1-2)]” as the compound, how does the “Secretion efficiency (%)” value [1, 5] read?
**A.** 64%

**Q.** And the “Secretion efficiency (%)” value [2, 6]?
**A.** 58%

**Q.** What about the “Optical density (OD) of broth” value [3, 6] of the same compound?
**A.** 22.1 OD

**Q.** And the “pKa of the ionizable group in water at 25° C.” value [4]?
**A.** 3.6

**Q.** Which “Secretion efficiency (%)” value [1, 5] does the source give for `CCCCCCCCCCCC[N+](C)(C)CCCS(=O)(=O)O.[OH-]` [Surfactant (A3-3), dodecyldimethyl(3-sulfopropyl)ammonium hydroxide] here?
**A.** 75%

**Q.** And the “Secretion efficiency (%)” value [2, 6]?
**A.** 61%

**Q.** What about the “Optical density (OD) of broth” value [3, 6] of the same compound?
**A.** 21.8 OD

**Q.** Which results are given for “sodium (2-dodecylamino)ethanesulfonate [Surfactant (A3-1)]”?
**A.** Secretion efficiency (%) [1, 5]: 62%; Secretion efficiency (%) [2, 6]: 60%; Optical density (OD) of broth at the end of culturing [3, 6]: 22.0 OD

**Q.** With `CCCCCCCCCCCC[N+](C)(C)C.[Cl-]` [Surfactant (A2-1), lauryl trimethyl ammonium chloride] as the compound, how does the “Secretion efficiency (%)” value [1, 5] read?
**A.** 88%

**Q.** What about the “Secretion efficiency (%)” value [2, 6] of the same compound?
**A.** 52%

**Q.** And the “Optical density (OD) of broth” value [3, 6]?
**A.** 13.8 OD
